The nature of data set [1]: Liver S9 fraction stability, dog. As to conditions: dog liver S9 1.0 mg/ml, 2 μM, 37° C. The format is in vitro ADME. Here is the method:
(§1) Liver S9 fraction stability determination of the test compounds in dog, cynomolgus monkey and human is performed using HPLC-MS. Test compound (2 μM, 0.1% DMSO, 1% Methanol final concentration) was assessed for stability in a 50 μl phosphate buffer containing 1.0 mg/ml S9 protein from each of the three species and 5 mM D-saccharic acid-1, 4-lactone. Samples were incubated at 37° C. for 60 minutes and the % compound remaining was assessed.

The target of the next data set is T1, MOR (Homo sapiens, UniProt P35372).
T1 construct: expressed in transfected cells
T1 sequence (P35372 whole entry): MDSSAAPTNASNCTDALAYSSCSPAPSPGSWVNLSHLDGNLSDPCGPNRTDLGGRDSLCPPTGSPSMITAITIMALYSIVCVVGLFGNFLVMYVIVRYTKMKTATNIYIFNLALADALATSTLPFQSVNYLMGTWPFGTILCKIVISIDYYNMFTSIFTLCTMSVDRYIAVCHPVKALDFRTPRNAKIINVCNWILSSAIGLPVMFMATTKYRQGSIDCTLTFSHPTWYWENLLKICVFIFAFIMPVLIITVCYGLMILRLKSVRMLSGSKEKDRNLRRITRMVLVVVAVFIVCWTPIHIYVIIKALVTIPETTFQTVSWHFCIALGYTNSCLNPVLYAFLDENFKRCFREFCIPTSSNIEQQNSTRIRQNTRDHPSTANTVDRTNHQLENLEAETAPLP
In words: Opioid receptor binding assay, MOR ([3H]DAMGO). The method, then: (§2) Receptor binding assays were performed to assess the ability of compounds to inhibit binding to radiolabeled ligand.
(§3) The stable cell lines were established and prepared cell membrane obtained using these cell lines.
(§4) 1) Transfer 1 μl of specified concentration compound to assay plate according to the plate map for nonspecific binding. Transfer 1 μl of DMSO to assay plate according to plate map for total binding. 2) Follow the plate map. Dispense 99 μl of membrane stocks into the plate. 3) Add 100 μl of radio ligand. 4) Seal the plates. Incubate at RT for 1 hour. 5) Soak the Unifilter-96 GF/C filter plates with 50 μl of 0.3% PEI per well for at least 0.5 hour at room temperature. 6) When binding assays are completed, filter the reaction mixture through GF/C plates using Perkin Elmer Filtermate Harvester, and then wash each plate for 4 times with cold wash buffer. 7) Dry the filter plates for 1 hour at 50 degrees. 8) After drying, seal the bottom of the filter plate wells using Perkin Elmer Unifilter-96 backing seal tape. Add 50 μl of Perkin Elmer Microscint 20 cocktail. Seal top of filter plates with Perkin Elmer TopSeal-A sealing film. 9) Count ^3H trapped on filter using Perkin Elmer MicroBeta2 Reader second day. 10) Analyze the data with GraphPad Prism 5. Calculate the “Inhibition [% Control]” using the equation: % Inh=(1−Background subtracted Assay value/Background subtracted HC value)*100.

The target of a further data set is T2, DOR (Homo sapiens, UniProt P41143).
T2 construct: expressed in transfected cells
T2 sequence (P41143 whole entry): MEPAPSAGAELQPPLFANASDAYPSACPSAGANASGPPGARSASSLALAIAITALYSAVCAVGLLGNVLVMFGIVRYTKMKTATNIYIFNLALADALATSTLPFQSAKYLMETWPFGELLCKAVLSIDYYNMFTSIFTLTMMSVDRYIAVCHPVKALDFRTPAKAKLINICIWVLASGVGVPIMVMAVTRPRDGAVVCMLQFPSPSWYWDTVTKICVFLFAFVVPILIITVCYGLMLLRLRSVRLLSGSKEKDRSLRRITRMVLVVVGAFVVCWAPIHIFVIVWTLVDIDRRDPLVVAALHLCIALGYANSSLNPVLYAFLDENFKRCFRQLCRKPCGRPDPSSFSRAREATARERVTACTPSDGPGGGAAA
In words: Opioid receptor binding assay, DOR ([3H]-DADLE). Here is the method: as §2, §3, §4

A short description of data set [2]: Rat pharmacokinetic studies, intramuscular administration. The format is in vivo, male Sprague Dawley Rats. The conditions noted are these: male, Sprague Dawley, rat, plasma, im; for AUC(0-inf): read-out: AUC0-inf (ng · h/mL) prodrug; for half-life: read-out: Half-life t1/2 (hour) prodrug (converted). Here is the method: The purpose of this study is to determine the pharmacokinetics of test compounds in plasma, following intramuscular administration to male Sprague Dawley Rats (n=3, unless otherwise specified).
The dose formulation of 400 mg base equivalents/ml in sesame oil+1% benzyl alcohol (unless otherwise specified) was administered by intramuscular injection. The dose volume was determined by the animals' body weight determined on the morning of dosing day.
Each collected blood sample was centrifuged for 4 minutes at 4° C. and 10000 rpm for plasma collection. Plasma was collected and transferred into a pre-labeled PP tube in dry ice at each time point and precipitated immediately using ACN at a ratio of 1:4 (plasma:ACN). Centrifuged again (10 minutes, 12000 rpm) and obtain the supernatant.
LC-MS/MS methods for the quantitative determination of test compound in biological matrix were developed. […] The sample analysis was performed concurrently with a set of calibration standards and two sets of QC samples using the LC-MS/MS method.
Plasma concentration versus time data was analyzed by non-compartmental approaches using the Phoenix WinNonlin 6.3 software program. Cmax, Tmax, T1/2, AUC(0-t), AUC(0-inf), MRT(0-t), MRT(0-inf) and graphs of plasma concentration versus time profile were prepared.

Data set [3] is described as follows: Liver S9 fraction stability, human. The data set is classed as in vitro ADME. The conditions noted are these: human liver S9 1.0 mg/ml, 2 μM, 37° C. Here is the method:
as §1

Data set [4] is described as follows: Dog pharmacokinetic studies, deep intramuscular administration. The format is in vivo, Beagle dogs. As to conditions: Beagle, dog, plasma, im; for AUC(0-inf): read-out: AUC0-inf (ng · h/mL) prodrug; for half-life: read-out: Half-life t1/2 (hour) prodrug (converted). A digest of the protocol: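 Beagle dogs (n=3) dosed by deep intramuscular injection into quadriceps or biceps femoris, formulation 400 mg base equivalents/mL in sesame oil + 1% benzyl alcohol, under propofol sedation. Plasma quantified by LC-MS/MS; non-compartmental analysis for Cmax, Tmax, T1/2, AUC and MRT.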

The target of another data set is T3, KOR (Homo sapiens, UniProt P41145).
T3 construct: expressed in transfected cells
T3 sequence (P41145 whole entry): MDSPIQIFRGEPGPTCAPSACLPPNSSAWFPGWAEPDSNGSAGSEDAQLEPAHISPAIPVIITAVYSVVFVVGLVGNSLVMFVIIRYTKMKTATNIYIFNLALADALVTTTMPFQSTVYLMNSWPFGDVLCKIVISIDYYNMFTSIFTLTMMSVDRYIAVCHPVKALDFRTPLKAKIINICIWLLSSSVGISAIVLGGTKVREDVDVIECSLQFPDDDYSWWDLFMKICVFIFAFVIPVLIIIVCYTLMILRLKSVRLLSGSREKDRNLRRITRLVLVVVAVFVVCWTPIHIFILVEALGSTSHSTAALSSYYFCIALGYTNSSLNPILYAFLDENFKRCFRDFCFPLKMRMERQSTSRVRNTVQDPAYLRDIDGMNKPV
Description: Opioid receptor binding assay, KOR ([3H]Diprenorphine). The method, then:
as §2, §3, §4

Data set [5] can be described thus: Liver S9 fraction stability, monkey. The format is in vitro ADME, cynomolgus monkey. As to conditions: monkey liver S9 1.0 mg/ml, 2 μM, 37° C. Here is the method: as §1
Data set [6] in a line: Dog body weights and clinical observation (Tables 66-86). The data set is classed as in vivo, Beagle dogs. As to conditions: 48 mg/kg Shallow IM, dog D1002, 1128 hr. The method, then:
Weight monitoring was done every week.
The dose formulation (concentration—400 mg base equivalents/ml in sesame oil+1% benzyl alcohol, unless otherwise specified) was administered via deep intramuscularly (unless otherwise specified). The injection vehicle was also dosed via deep intramuscular route (unless otherwise specified) on contralateral site of each animal at study initiation. The animals were sedated with Propofol at 6 mg/kg via IV administration. Following sedation hair was carefully removed from around the injection site and the area gently cleaned. Care will be taken to avoid irritating skin during shaving and cleaning the injection site. Then dogs will be dosed with deep IM administration. At least 2.5 cm depth from the surface into the central aspect of the quadriceps or biceps femoris muscle, by angling the needle toward the femur. If the needle hits the femur, simply draws back slightly and then inject. The dose volume will be determined by the animals' body weight collected on the morning of dosing day. For repeated administration, the injection sites may be rotated to minimize tissue injury.

Data set [7] in a line: Solubility determination in oil (Table 10). As to conditions: thermodynamic from solid; for solubility at 24 h: 25 °C, Heating Temp. 60 °C, Obs. Temp. 25 °C; for solubility thermodynamic / solubility: 40 °C, Heating Temp. 40 °C, Obs. Temp. 40 °C; for solubility thermodynamic: water, Equilibrium solubility: Water. The method, then:
A known amount of test substance (˜40 mg) was weighed into the vial, 100 μL of oil was added and heated to 60° C. and then system was slurried to reach equilibrium. […] Extra oil was added into the vial once compound precipitated out and then the system was re-equilibrated at 1000 rpm at room temperature (25° C.). Final concentration was determined by HPLC method as described below in Table 6a and 6b.

Setting [8] is: 80 mg/kg, Cottonseed + 1% Benzyl Alcohol.
Setting [9] is: 123 mg/kg, Cottonseed oil + 1% Benzyl Alcohol.
Setting [10] is: 165 mg/kg, Cottonseed oil + 1% Benzyl Alcohol.
Setting [11] is: 48 mg/kg, IM 48 mg/kg (deep), Cottonseed + 1% Benzyl Alcohol.
[12] abbreviates: 48 mg/kg, IM 48 mg/kg (shallow), Cottonseed + 1% Benzyl Alcohol.
[13] abbreviates: oil or lipid, Approximate Solubility in Excipient: Cottonseed oil.
The mark [14] stands for this setting: oil or lipid, Approximate Solubility in Excipient: Sesame oil.
The mark [15] stands for this setting: 80 mg/kg, Sesame oil + 1% Benzyl Alcohol.
Where [16] appears, read: 123 mg/kg, Sesame oil + 1% Benzyl Alcohol.
Where [17] appears, read: 165 mg/kg, Sesame oil + 1% Benzyl Alcohol.
[18] abbreviates: 30 mg/kg, IM 30 mg/kg, Sesame oil + 1% Benzyl Alcohol.
[19] abbreviates: 48 mg/kg, IM 48 mg/kg (deep), Sesame oil + 1% Benzyl Alcohol.
[20] abbreviates: 48 mg/kg, IM 48 mg/kg (shallow), Sesame oil + 1% Benzyl Alcohol.
Where [21] appears, read: 96 mg/kg, IM 96 mg/kg, Sesame oil + 1% Benzyl Alcohol.

Converted amounts (≈) assume the structure as drawn.

What is called IC50 is the concentration at which inhibition is half-maximal. Usually solubility stands for the concentration that dissolves in the medium under given conditions. Broadly, the solubility (thermodynamic) is solubility found after equilibrating the solid with the medium. Consider `C=C1CC[C@@]2(O)C3Cc4ccc(OCOC(=O)OCCCCCCCCCCCC)c5c4[C@@]2(CCN3CC2CC2)[C@H]1O5` [Compound 24, (((4aS,7aS,12bS)-3-(cyclopropylmethyl)-4a-hydroxy-7-methylene-2,3,4,4a,5,6,7,7a-octahydro-1H-4,12-methanobenzofuro[3,2-e]isoquinolin-9-yl)oxy)methyl dodecyl carbonate], for which the “% remaining at 60 minutes, Dog” value in data set [1] is listed as 3.6%. Also, the IC50 was 22.4 nM on MOR, 2120 nM at DOR and 37.5 nM at KOR. Besides, the AUC(0-inf) in data set [2] (setting [8]) worked out at 147 ng·h/mL; in data set [2] (setting [9]) it was 547 ng·h/mL; in data set [2] (setting [10]) it was 453 ng·h/mL; in data set [4] (setting [11]) it was 613 ng·h/mL; in data set [4] (setting [12]), 526 ng·h/mL. Also, the half-life is 398 h in data set [2] (setting [8]); 717 h in data set [2] (setting [9]); 851 h in [2] (setting [10]); 59.6 h in data set [4] (setting [11]); 102 h in data set [4] (setting [12]). For the same compound, the “% remaining at 60 minutes, Human” value in data set [3] stood at 3.5%. In addition, the “% remaining at 60 minutes, Monkey” value in data set [5] amounted to 3%. Further, the BT result in [6] was “BT: 38.8 °C”. Further, the figures for the solubility at 24 h in [7] (setting [13]) and in data set [7] (setting [14]) were over 403 mg/mL and 338 to 368 mg/mL (≈ 581 to 633 mM), respectively. The compound further returned a solubility (thermodynamic) in [7] of under 0.001 mg/mL.
For the compound `C=C1CC[C@@]2(O)C3Cc4ccc(OC(=O)OCCCCCCCCCCCC)c5c4[C@@]2(CCN3CC2CC2)[C@H]1O5` [Compound 6, (4aS,7aS,12bS)-3-(cyclopropylmethyl)-4a-hydroxy-7-methylene-2,3,4,4a,5,6,7,7a-octahydro-1H-4,12-methanobenzofuro[3,2-e]isoquinolin-9-yl dodecyl carbonate], the “% remaining at 60 minutes, Dog” value in data set [1] was 17.1%. In addition, the concentration for half-maximal inhibition (IC50) at MOR turned out to be 14.9 nM; on DOR it was 500 nM; on KOR, 51.1 nM. The AUC(0-inf) in [2] (setting [15]) is 78.9 ng·h/mL; in [2] (setting [16]) it was 620 ng·h/mL; in data set [2] (setting [17]) it was 637 ng·h/mL; in data set [4] (setting [18]) it was 398 ng·h/mL; in data set [4] (setting [19]), 2190 ng·h/mL; in data set [4] (setting [20]), 1020 ng·h/mL. The AUC(0-inf) in data set [4] (setting [21]) was determined as 1290 ng·h/mL. In addition, the half-life in [2] (setting [15]) was 340 h; in data set [2] (setting [16]), 213 h; in data set [2] (setting [17]) it was 204 h; in data set [4] (setting [18]) it was 95 h; in [4] (setting [19]) it was 54 h; in data set [4] (setting [20]), 135 h. Besides, the half-life in [4] (setting [21]) was 88 h. Besides, the “% remaining at 60 minutes, Human” value in data set [3] turned out to be 5.3%. Besides, the “% remaining at 60 minutes, Monkey” value in data set [5] is 0%. In addition, the values for the solubility at 24 h in [7] (setting [13]) and in data set [7] (setting [14]) were over 397 mg/mL and over 386 mg/mL, respectively. Moreover, the solubility in [7] (setting [13]) is over 421 mg/mL; in data set [7] (setting [14]) it was over 403 mg/mL; in data set [7] (organic solvent or mixture, Approximate Solubility in Excipient: Ethanol) it was 120 to 170 mg/mL (≈ 217 to 308 mM). The compound also registered a solubility (thermodynamic) in data set [7] of 0.002 mg/mL (≈ 0.00362 mM).

The record behind these values is patent US20190308988A1, “OPIOID RECEPTOR ANTAGONIST PRODRUGS” (Nirsum Laboratories, Inc., priority 2017, published 2019).
